Laboratory results from US9795596B2, “Pharmaceutical diagnostic” (Novartis AG, priority 2012, dated 2017).

Assays:
Type in all cases: biochemical, bovine
PI3Kα wildtype (wt) = biological target: T1, PI3Kα wildtype (wt) (Bos taurus, UniProt P32871); experiment: Enzymatic HTRF assay, PI3Kα wild-type
T1 construct: His; made in house; host or cells: Sf9 insect cells (baculovirus co-infection)
From the text: The Phosphoinositide 3-kinase (PI3-Kinase or PI3K) Homogenous Time-Resolved (HTRF®) assay kit is purchased from Upstate (now Millipore Corporation, Billerica, Mass., USA). PIP2 and PiP3 is purchased from Avanti Polar Lipids (Alabaster, Ala., USA), microplates from Greiner (Frickenhausen, Germany; Catalog No. 781207). All other reagents are purchased from Sigma (St Louis, Mo., USA). […]
PI3K inhibitor (S)-Pyrrolidine-1,2-dicarboxylic acid 2-amide 1-({4-methyl-5-[2-(2,2,2-trifluoro-1,1-dimethyl-ethyl)-pyridin-4-yl]-thiazol-2-yl}-amide) (hereinafter “Compound I”) is diluted successively in Dimethyl sulfoxide (DMSO) and in buffer (final concentration: 2.5% DMSO). […] The plate is read using Tecan's GeniosPro® multilabel reader (from Tecan Group Ltd., Männedorf, Switzerland) in time-resolved fluorescence mode (Excitation filter: 340 nm; Emission filter 1: 620 nm; Emission filter 2: 665 nm; Mirror: dichroic2; Lag time: 150 μs; Integration time: 500 μs; 10 flashes).
(§1) The HTRF signal is determined according to the formula: HTRF signal=10000×(emission at 665 nm/emission at 620 nm). […]

PI3Kα Q859A mutant [1] = biological target: T2, PI3Kα Q859A mutant (Bos taurus, UniProt P32871, Q859A); experiment: Enzymatic HTRF assay, PI3Kα Q859A mutant
T2 construct: His; made in house; host or cells: Sf9 insect cells (baculovirus co-infection)
Experimental: (§2) Mutagenesis to generate PI3Kα (p110α) mutant Q859A is performed with the QuikChange II Site-Directed Mutagenesis kit (Stratagene (cat. no 200523) and the oligonucleotides
(§3) The Phosphoinositide 3-kinase (PI3-Kinase or PI3K) Homogenous Time-Resolved (HTRF®) assay kit is purchased from Upstate (now Millipore Corporation, Billerica, Mass., USA). PIP2 and PiP3 is purchased from Avanti Polar Lipids (Alabaster, Ala., USA), microplates from Greiner (Frickenhausen, Germany; Catalog No. 781207). All other reagents are purchased from Sigma (St Louis, Mo., USA).
(§4) The enzymatic Homogenous Time-Resolved Fluorescense (HTRF®) assay (from Upstate (now Millipore Corporation, Billerica, Mass., USA) is performed essentially as described by Sugita et al. (2008), Biochem. Biophys. Res. Commun 377(3):941-5. PI3Kα (0.25-1.5 ng) is incubated for 60 minutes at room temperature in 20 μl buffer containing 10 mM MgCl2, 30 μM ATP, 20 μM 1,2-dioctanoyl-sn-glycero-3-phospho-(1′-myo-inositol-4′,5′-bisphosphate) (ammonium salt) (PIP2), 150 mM NaCl, 5 mM (dl-Dithiothreitol) DTT, and 25 mM Tris/HCl (pH 7.5) in 384-well white plates. The kinase reaction is initiated by adding ATP (30 μM) for inhibition studies and by adding PI3Kα for ATP kinetics (0-200 μM ATP).
(§5) PI3K inhibitor (S)-Pyrrolidine-1,2-dicarboxylic acid 2-amide 1-({4-methyl-5-[2-(2,2,2-trifluoro-1,1-dimethyl-ethyl)-pyridin-4-yl]-thiazol-2-yl}-amide) (hereinafter “Compound I”) is diluted successively in Dimethyl sulfoxide (DMSO) and in buffer (final concentration: 2.5% DMSO). The kinase reaction is stopped by addition of the HTRF reagents according to manufacturer's instructions. […] The plate is read using Tecan's GeniosPro® multilabel reader (from Tecan Group Ltd., Männedorf, Switzerland) in time-resolved fluorescence mode (Excitation filter: 340 nm; Emission filter 1: 620 nm; Emission filter 2: 665 nm; Mirror: dichroic2; Lag time: 150 μs; Integration time: 500 μs; 10 flashes).
as §1

PI3Kα Q859A mutant [2] = experiment: Enzymatic HTRF assay, PI3Kα Q859A mutant; conditions: IC50 Q859A / IC50 wildtype
Experimental: as §2, §3, §4, §5, §1

T2 sequence (P32871 whole entry Q859A): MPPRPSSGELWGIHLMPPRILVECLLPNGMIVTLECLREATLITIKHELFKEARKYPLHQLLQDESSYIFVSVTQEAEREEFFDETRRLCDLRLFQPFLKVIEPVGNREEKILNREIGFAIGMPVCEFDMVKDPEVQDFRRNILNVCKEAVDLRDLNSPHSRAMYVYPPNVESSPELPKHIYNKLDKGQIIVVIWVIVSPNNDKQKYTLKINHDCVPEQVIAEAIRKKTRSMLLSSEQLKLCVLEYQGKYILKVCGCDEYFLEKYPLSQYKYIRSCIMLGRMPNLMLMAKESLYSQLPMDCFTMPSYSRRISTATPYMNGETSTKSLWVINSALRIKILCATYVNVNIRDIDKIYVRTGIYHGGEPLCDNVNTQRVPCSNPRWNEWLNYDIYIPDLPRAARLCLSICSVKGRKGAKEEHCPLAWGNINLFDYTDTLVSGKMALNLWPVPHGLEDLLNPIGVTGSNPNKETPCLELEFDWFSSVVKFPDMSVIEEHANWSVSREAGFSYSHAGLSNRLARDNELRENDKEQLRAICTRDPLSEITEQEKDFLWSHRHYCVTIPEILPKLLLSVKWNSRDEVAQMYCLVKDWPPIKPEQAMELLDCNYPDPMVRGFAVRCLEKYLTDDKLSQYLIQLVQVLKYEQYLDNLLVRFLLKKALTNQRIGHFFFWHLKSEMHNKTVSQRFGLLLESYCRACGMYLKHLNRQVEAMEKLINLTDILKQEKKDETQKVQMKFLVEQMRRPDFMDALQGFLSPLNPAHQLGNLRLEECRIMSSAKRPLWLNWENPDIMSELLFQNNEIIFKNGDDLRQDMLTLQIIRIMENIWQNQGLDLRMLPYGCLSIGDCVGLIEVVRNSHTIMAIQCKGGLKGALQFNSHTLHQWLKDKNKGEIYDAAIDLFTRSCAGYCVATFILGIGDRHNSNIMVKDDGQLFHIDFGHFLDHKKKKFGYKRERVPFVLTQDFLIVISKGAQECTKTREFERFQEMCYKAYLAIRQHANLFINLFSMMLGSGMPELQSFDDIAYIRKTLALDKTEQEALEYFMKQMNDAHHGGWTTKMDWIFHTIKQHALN
T2 sequence (P27986 whole entry partner): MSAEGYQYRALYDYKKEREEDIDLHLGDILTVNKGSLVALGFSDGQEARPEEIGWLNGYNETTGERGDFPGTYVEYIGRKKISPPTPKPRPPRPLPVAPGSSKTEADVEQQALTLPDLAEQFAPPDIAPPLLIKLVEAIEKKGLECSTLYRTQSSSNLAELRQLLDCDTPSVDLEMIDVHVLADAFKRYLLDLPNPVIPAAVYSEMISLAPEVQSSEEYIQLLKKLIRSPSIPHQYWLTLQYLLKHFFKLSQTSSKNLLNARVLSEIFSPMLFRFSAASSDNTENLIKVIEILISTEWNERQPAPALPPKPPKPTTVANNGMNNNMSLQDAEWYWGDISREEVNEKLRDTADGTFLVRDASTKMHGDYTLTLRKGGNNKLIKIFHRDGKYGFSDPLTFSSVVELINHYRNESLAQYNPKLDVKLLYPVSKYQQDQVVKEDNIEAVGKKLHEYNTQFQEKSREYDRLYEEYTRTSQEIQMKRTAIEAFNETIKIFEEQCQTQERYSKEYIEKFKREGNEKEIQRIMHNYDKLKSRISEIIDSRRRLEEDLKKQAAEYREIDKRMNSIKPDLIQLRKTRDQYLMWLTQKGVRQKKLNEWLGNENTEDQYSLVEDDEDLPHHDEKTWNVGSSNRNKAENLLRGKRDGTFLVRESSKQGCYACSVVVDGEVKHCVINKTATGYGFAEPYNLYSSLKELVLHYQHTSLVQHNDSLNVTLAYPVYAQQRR
T1 sequence (P32871 whole entry): as the sequence (P32871 whole entry Q859A) above, with A859Q counted along it
T1 sequence (P27986 whole entry partner): as the sequence (P27986 whole entry partner) above

| Km (PI3Kα wildtype (wt); PI3K wild-type, 0-200 μM ATP, mean ± S.E. of 14 experiments, read-out: Michaelis constant (Km), ATP activation kinetics) | Km (PI3Kα Q859A mutant [1]; PI3Kα Q859A mutant, 0-200 μM ATP, mean ± S.E. of 5 experiments, read-out: Michaelis constant (Km), ATP activation kinetics) | IC50 (PI3Kα wildtype (wt); PI3Kα wild-type p110α/p85α, 30 μM ATP, 20 μM PIP2, 60 min, mean ± S.E. of 10 experiments) | fold increase in the IC50, Q859A mutant versus wildtype (PI3Kα Q859A mutant [2]) | IC50 (PI3Kα Q859A mutant [1]; PI3Kα Q859A mutant p110α/p85α, 30 μM ATP, 20 μM PIP2, 60 min, mean ± S.E. of 7 experiments) | Compound |
| --- | --- | --- | --- | --- | --- |
| 60 ± 6 µM | 72 ± 8 µM | – | – | – | Nc1ncnc2c1ncn2[C@@H]1O[C@H](COP(=O)(O)OP(=O)(O)OP(=O)(O)O)[C@@H](O)[C@H]1O [ATP, reference compound] |
| – | – | 8.4 ± 1 nM | 14.5 fold | 122 ± 28 nM | Cc1nc(NC(=O)N2CCC[C@H]2C(N)=O)sc1-c1ccnc(C(C)(C)C(F)(F)F)c1 [Compound I, (S)-Pyrrolidine-1,2-dicarboxylic acid 2-amide 1-({4-methyl-5-[2-(2,2,2-trifluoro-1,1-dimethyl-ethyl)-pyridin-4-yl]-thiazol-2-yl}-amide)] |
